Experimental data: patent US10800789B2, “Antiviral compounds” (Gilead Pharmasset LLC, priority 2012, dated 2020)
Where two headings read alike, the source gives them in different places.

Columns and labels:
[1] = system: stable HCV 2a JFH-1 Rluc replicon cells (L31 present in NS5A); experiment: Renilla luciferase HCV replicon reporter assay, genotype 2a JFH-1; assay type: cell-based; details: Hepatitis C virus
In short: (§1)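 First, 3-fold serial dilutions of compound went onto replicon cells, DMSO serving as no-inhibition control and ITMN-191 at >100×EC50 as positive control. Next came 72 h incubation, lysis and Renilla luciferase measurement. Finally, EC50 was calculated by non-linear regression; replicons covered genotypes 1a H77, 1b Con1, 2a JFH-1 (L31) and J6-NS5A chimera (M31).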

[2] = system: NS5A chimeric genotype 1b Con1 replicon with genotype 3a S52 strain NS5A gene; experiment: Replicon assay, genotype 3a NS5A chimera; assay type: cell-based, HCV; details: Hepatitis C virus
[3] = system: NS5A chimeric genotype 1b Con1 replicon with genotype 4a ED43 strain NS5A gene; experiment: Replicon assay, genotype 4a NS5A chimera; assay type: cell-based, HCV; details: Hepatitis C virus
[4] = system: stable HCV 1a RLuc replicon cells (dicistronic genotype 1a H77 replicon); experiment: Renilla luciferase HCV replicon reporter assay, genotype 1a; assay type: cell-based; details: Hepatitis C virus, 72 h, stable 1a H77 RLuc replicon cells
In short: as §1

[5] = system: NS5A chimeric genotype 2a JFH-1 replicon with genotype 2b MD2b-1 strain NS5A gene (M31 present); experiment: Replicon assay, genotype 2b NS5A chimera; assay type: cell-based, HCV; details: Hepatitis C virus
In short: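 EC50 was fitted by non-linear regression to Renilla luciferase signal after 72 h of exposure to 3-fold serially diluted compound (10 mM DMSO stocks). Controls were DMSO (none) and ITMN-191 above 100×EC50 (full). Chimeric 2a replicons were used either stable or transiently transfected into Huh-Lunet cells.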

[6] = system: stable HCV 1b RLuc replicon cells (dicistronic genotype 1b Con1 replicon); experiment: Renilla luciferase HCV replicon reporter assay, genotype 1b; assay type: cell-based; details: Hepatitis C virus, 72 h, stable 1b Con1 RLuc replicon cells, 72 hours; read-out: 1b
In short: as §1

[7] = system: NS5A chimeric genotype 2a JFH-1 replicon with genotype 2a J6 strain NS5A gene (M31 present); experiment: Replicon assay, genotype 2a J6 NS5A chimera; assay type: cell-based, HCV; details: Hepatitis C virus
In short: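 Cells carrying the stable or transiently transfected (Huh-Lunet) dicistronic RLuc replicons received 3-fold serial compound dilutions from 10 mM DMSO stocks. After 72 h, cells were lysed and Renilla luciferase read. DMSO served as the no-inhibition control and ITMN-191 above 100×EC50 as the positive control; EC50 by non-linear regression.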

[8] = read-out: 2a JFH (nM), genotype 2a JFH-1 replicon (L31 in NS5A), stable cells
[9] = read-out: 2a JFH, stable 2a JFH-1 Rluc replicon cells, L31 in NS5A, activity range
[10] = read-out: 3a (s) (nM), genotype 3a NS5A chimeric replicon, stable replicon cells (s)
[11] = read-out: 3a (s), (s), activity range
[12] = read-out: 4a (s) (nM), genotype 4a NS5A chimeric replicon, stable replicon cells (s)
[13] = read-out: 4a (s), (s), activity range
[14] = 2BS, read-out: 2b (s), stably replicating replicon cells (s), activity range
[15] = read-out: 2b (s) (nM), genotype 2b MD2b-1 NS5A chimeric replicon (M31), stably replicating replicon cells (s)
[16] = read-out: 2a J6 (t) (nM), genotype 2a J6 NS5A chimeric replicon (M31), transiently transfected (t) into Huh-Lunet cells
[17] = read-out: 2a J6 (t), transiently transfected (t) into Huh-Lunet cells, activity range

Compound	EC50 [1, 8]	EC50 [1, 9]	EC50 [2, 10]	EC50 [2, 11]	EC50 [3, 12]	EC50 [3, 13]	EC50 [4]	EC50 ([4]; activity range)	EC50 [5, 14]	EC50 [5, 15]	EC50 [6]	EC50 [7, 16]	EC50 [7, 17]	EC50 ([7]; read-out: 2a J6 (s) (nM), genotype 2a J6 NS5A chimeric replicon (M31), stably replicating replicon cells (s))	EC50 ([7]; read-out: 2a J6 (s), stably replicating replicon cells (s), activity range)	EC50 ([2]; read-out: 3a (t) (nM), genotype 3a NS5A chimeric replicon, transiently transfected (t))	EC50 ([2]; read-out: 3a (t), transiently transfected (t) into Huh-Lunet cells, activity range)
CCC[C@H](NC(=O)OC)C(=O)N1[C@@H](C)CC[C@H]1c1ncc(-c2ccc3c(c2)COc2cc4c(ccc5nc([C@@H]6CC[C@H](C)N6C(=O)[C@H](CCC)NC(=O)OC)[nH]c54)cc2-3)[nH]1 [HA]	0.033 nM	< 0.1 nM	0.132 nM	0.1 to 0.999 nM	0.028 nM	< 0.1 nM	0.018 nM	< 0.1 nM	1 to 44 nM	5.42 nM	0.019 nM	4.12 nM	1 to 44 nM				
CC[C@H](C)[C@H](NC(=O)OC)C(=O)N1[C@@H](C)CC[C@H]1c1nc2ccc3cc4c(cc3c2[nH]1)OCc1cc(-c2cnc([C@@H]3CC[C@H](C)N3C(=O)[C@@H](NC(=O)OC)C(C)C)[nH]2)ccc1-4 [GM]	0.016 nM	< 0.1 nM	0.048 nM	< 0.1 nM	0.015 nM	< 0.1 nM	0.012 nM	< 0.1 nM	0.1 to 0.999 nM	0.658 nM	0.016 nM	0.222 nM	0.1 to 0.999 nM				
CCC[C@H]1CC[C@@H](c2nc3ccc4cc5c(cc4c3[nH]2)OCc2cc(-c3cnc([C@@H]4CC[C@H](C)N4C(=O)[C@@H](NC(=O)OC)C(C)C)[nH]3)ccc2-5)N1C(=O)[C@@H](NC(=O)OC)C1CCOCC1 [IV]	0.055 nM	< 0.1 nM	0.236 nM	0.1 to 0.999 nM	0.018 nM	< 0.1 nM	0.045 nM	< 0.1 nM	0.1 to 0.999 nM	0.426 nM	0.053 nM			0.068 nM	< 0.1 nM		
COC(=O)N[C@H](C(=O)N1[C@@H](C)CC[C@H]1c1nc2ccc3cc4c(cc3c2[nH]1)OCc1cc(-c2cnc([C@@H]3CC[C@H](C)N3C(=O)[C@@H](NC(=O)OC)[C@@H](C)OC(F)F)[nH]2)ccc1-4)[C@@H](C)OC [GN]	0.017 nM	< 0.1 nM	0.072 nM	< 0.1 nM	0.016 nM	< 0.1 nM	0.013 nM	< 0.1 nM	0.1 to 0.999 nM	0.247 nM	0.023 nM	0.033 nM	< 0.1 nM				
CC[C@H]1C[C@@H](c2nc3ccc4cc5c(cc4c3[nH]2)OCc2cc(-c3cnc([C@@H]4CC[C@H](C)N4C(=O)[C@@H](NC(=O)OC)C(C)C)[nH]3)ccc2-5)N(C(=O)[C@@H](NC(=O)OC)C(C)C)C1 [GT]	0.028 nM	< 0.1 nM	0.187 nM	0.1 to 0.999 nM	0.031 nM	< 0.1 nM	0.017 nM	< 0.1 nM	1 to 44 nM	1.73 nM	0.021 nM	0.257 nM	0.1 to 0.999 nM				
COC(=O)N[C@H](C(=O)N1[C@@H](C)CC[C@H]1c1ncc(-c2ccc3c(c2)COc2cc4c(ccc5nc([C@@H]6CC[C@H](C)N6C(=O)[C@@H](NC(=O)OC)[C@H](C)O)[nH]c54)cc2-3)[nH]1)C(C)C [HW]	0.047 nM	< 0.1 nM	0.085 nM	< 0.1 nM	0.021 nM	< 0.1 nM	0.056 nM	< 0.1 nM	1 to 44 nM	1.79 nM	0.066 nM	1.1 nM	1 to 44 nM				
CC[C@H]1CC[C@@H](c2ncc(-c3ccc4c(c3)COc3cc5c(ccc6nc([C@@H]7CC[C@H](C)N7C(=O)[C@@H](NC(=O)OC)[C@@H](C)OC)[nH]c65)cc3-4)[nH]2)N1C(=O)[C@H](C)NC(=O)OC [GP]	0.027 nM	< 0.1 nM	0.571 nM	0.1 to 0.999 nM	0.031 nM	< 0.1 nM	0.018 nM	< 0.1 nM	1 to 44 nM	2.33 nM	0.027 nM	1.07 nM	1 to 44 nM				
COC(=O)N[C@H](C(=O)N1C[C@@H](C)C[C@H]1c1ncc(-c2ccc3c(c2)COc2cc4c(ccc5nc([C@@H]6CC[C@H](C)N6C(=O)[C@@H](NC(=O)OC)C6CCOCC6)[nH]c54)cc2-3)[nH]1)C(C)C [FN, Methyl [(2S)-1-{(2S,4S)-2-[5-(2-{(2S,5S)-1-[(2S)-2-[(methoxycarbonyl)amino]-2-(tetrahydro-2H-pyran-4-yl)acetyl]-5-methylpyrrolidin-2-yl}-1,11-dihydroisochromeno[4′,3′:6,7]naphtho[1,2-d]imidazol-9-yl)-1H-imidazol-2-yl]-4-methylpyrrolidin-1-yl}-3-methyl-1-oxobutan-2-yl]carbamate]	0.028 nM	< 0.1 nM	0.084 nM	< 0.1 nM	0.02 nM	< 0.1 nM	0.035 nM	< 0.1 nM	0.1 to 0.999 nM	0.142 nM	0.053 nM	0.068 nM	< 0.1 nM				
COC(=O)N[C@H](C(=O)N1[C@@H](C)CC[C@H]1c1nc(C2CC2)c(-c2ccc3c(c2)COc2cc4c(ccc5nc([C@@H]6CC[C@H](C)N6C(=O)[C@@H](NC(=O)OC)[C@@H](C)OC)[nH]c54)cc2-3)[nH]1)[C@@H](C)OC [GC, Methyl [(2S,3R)-1-{(2S,5S)-2-[9-(4-cyclopropyl-2-{(2S,5S)-1-[N-(methoxycarbonyl)-O-methyl-L-threonyl]-5-methylpyrrolidin-2-yl}-1H-imidazol-5-yl)-1,11-dihydroisochromeno[4′,3′:6,7]naphtho[1,2-d]imidazol-2-yl]-5-methylpyrrolidin-1-yl}-3-methoxy-1-oxobutan-2-yl]carbamate]	0.063 nM	< 0.1 nM	0.14 nM	0.1 to 0.999 nM	0.013 nM	< 0.1 nM	0.013 nM	< 0.1 nM	0.1 to 0.999 nM	0.117 nM	0.022 nM	0.181 nM	0.1 to 0.999 nM			0.032 nM	< 0.1 nM
COC(=O)N[C@H](C(=O)N1CCC[C@H]1c1ncc(-c2ccc3c(c2)COc2cc4c(ccc5nc([C@@H]6CCCN6C(=O)[C@@H](NC(=O)OC)[C@@H](C)OC)[nH]c54)cc2-3)[nH]1)[C@@H](C)OC [HG]	0.021 nM	< 0.1 nM	0.129 nM	0.1 to 0.999 nM	0.033 nM	< 0.1 nM	0.06 nM	< 0.1 nM	0.1 to 0.999 nM	0.733 nM	0.109 nM	0.185 nM	0.1 to 0.999 nM				
CC[C@H]1CC[C@@H](c2nc3ccc4cc5c(cc4c3[nH]2)OCc2cc(-c3cnc([C@@H]4CC[C@H](C)N4C(=O)[C@@H](NC(=O)OC)C4CCOCC4)[nH]3)ccc2-5)N1C(=O)[C@@H](NC(=O)OC)C(C)C [IR]	0.018 nM	< 0.1 nM	0.091 nM	< 0.1 nM	0.017 nM	< 0.1 nM	0.018 nM	< 0.1 nM	< 0.1 nM	0.081 nM	0.021 nM	0.084 nM	< 0.1 nM				
COC(=O)N[C@@H](CO)C(=O)N1[C@@H](C)CC[C@H]1c1nc2ccc3cc4c(cc3c2[nH]1)OCc1cc(-c2cnc([C@@H]3CC[C@H](C)N3C(=O)[C@@H](NC(=O)OC)C(C)C)[nH]2)ccc1-4 [GZ]	0.019 nM	< 0.1 nM	0.158 nM	0.1 to 0.999 nM	0.031 nM	< 0.1 nM	0.042 nM	< 0.1 nM	1 to 44 nM	1.15 nM	0.045 nM	0.534 nM	0.1 to 0.999 nM				
